Data as given in the supplement of paper PMC10307832.

Key:
Experiment in all cases: relative viability (nuclei count vs DMSO), 5 days (fraction); higher = more cells survive
YM155 + Alpelisib = compound: COCC[n+]1c2c(n(Cc3cnccn3)c1C)C(=O)c1ccccc1C2=O [YM155] + Cc1nc(NC(=O)N2CCC[C@H]2C(N)=O)sc1-c1ccnc(C(C)(C)C(F)(F)F)c1 [Alpelisib] (partner 2 µM)
Summary of the method: (§1)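 Nuclei were stained with Hoechst during a one-step fixation (final 0.05% Triton X-100, 1% formaldehyde, 1 ug/ml Hoechst) carried out 5 days after dosing, then counted on 4× images. The cells, lung cancer lines in 1536-well plates, had been dosed by pin tool the day after seeding with one drug alone or a fixed anchor-drug dose plus five library-drug doses (not always all listed) in √10 steps. Relative viability is the nuclei count in treated wells divided by that in vehicle wells, and each value is the median of duplicate plates.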

YM155 + Decitabine = compound: COCC[n+]1c2c(n(Cc3cnccn3)c1C)C(=O)c1ccccc1C2=O [YM155] + Nc1ncn([C@H]2C[C@H](O)[C@@H](CO)O2)c(=O)n1 [Decitabine] (partner 2 µM)
Summary of the method: as §1

Quizartinib + Pemetrexed = compound: CC(C)(C)c1cc(NC(=O)Nc2ccc(-c3cn4c(n3)sc3cc(OCCN5CCOCC5)ccc34)cc2)no1 [Quizartinib] + Nc1nc2[nH]cc(CCc3ccc(C(=O)N[C@@H](CCC(=O)O)C(=O)O)cc3)c2c(=O)[nH]1 [Pemetrexed] (partner 0.2 µM)
Summary of the method: as §1

[1] = compound: CC(C)(C)c1cc(NC(=O)Nc2ccc(-c3cn4c(n3)sc3cc(OCCN5CCOCC5)ccc34)cc2)no1 [Quizartinib] + CC(=O)c1c(C)c2cnc(Nc3ccc(N4CCNCC4)cn3)nc2n(C2CCCC2)c1=O [Palbociclib] (partner 0.5 µM)
Summary of the method: as §1

EKVX
relative viability (YM155 + Alpelisib; first compound 0.002 µM): 0.897 | relative viability (YM155 + Alpelisib; first compound 0.006325 µM): 0.916 | relative viability (YM155 + Alpelisib; first compound 0.02 µM): 0.859 | relative viability (YM155 + Alpelisib; first compound 0.06325 µM): 0.813 | relative viability (YM155 + Decitabine; first compound 0.002 µM): 0.332 | relative viability (YM155 + Decitabine; first compound 0.006325 µM): 0.389 | relative viability (YM155 + Decitabine; first compound 0.02 µM): 0.312 | relative viability (YM155 + Decitabine; first compound 0.06325 µM): 0.228 | relative viability (Quizartinib + Pemetrexed; first compound 0.003162 µM): 0.363 | relative viability (Quizartinib + Pemetrexed; first compound 0.01 µM): 0.434 | relative viability (Quizartinib + Pemetrexed; first compound 0.03162 µM): 0.39 | relative viability (Quizartinib + Pemetrexed; first compound 0.1 µM): 0.351 | relative viability ([1]; first compound 0.003162 µM): 0.354 | relative viability ([1]; first compound 0.01 µM): 0.397 | relative viability ([1]; first compound 0.03162 µM): 0.451 | relative viability ([1]; first compound 0.1 µM): 0.283

EMC-BAC-2
relative viability (YM155 + Alpelisib; first compound 0.002 µM): 0.735 | relative viability (YM155 + Alpelisib; first compound 0.006325 µM): 0.723 | relative viability (YM155 + Alpelisib; first compound 0.02 µM): 0.729 | relative viability (YM155 + Alpelisib; first compound 0.06325 µM): 0.719 | relative viability (YM155 + Decitabine; first compound 0.002 µM): 1.01 | relative viability (YM155 + Decitabine; first compound 0.006325 µM): 1.05 | relative viability (YM155 + Decitabine; first compound 0.02 µM): 0.948 | relative viability (YM155 + Decitabine; first compound 0.06325 µM): 0.651 | relative viability (Quizartinib + Pemetrexed; first compound 0.001 µM): 0.365 | relative viability (Quizartinib + Pemetrexed; first compound 0.003162 µM): 0.44 | relative viability (Quizartinib + Pemetrexed; first compound 0.01 µM): 0.451 | relative viability (Quizartinib + Pemetrexed; first compound 0.1 µM): 0.493 | relative viability ([1]; first compound 0.001 µM): 0.456 | relative viability ([1]; first compound 0.003162 µM): 0.483 | relative viability ([1]; first compound 0.01 µM): 0.547 | relative viability ([1]; first compound 0.1 µM): 0.544

IA-LM
relative viability (YM155 + Alpelisib; first compound 0.002 µM): 0.578 | relative viability (YM155 + Alpelisib; first compound 0.006325 µM): 0.907 | relative viability (YM155 + Alpelisib; first compound 0.02 µM): 0.738 | relative viability (YM155 + Alpelisib; first compound 0.06325 µM): 0.644

NCI-H522
relative viability (YM155 + Decitabine; first compound 0.002 µM): 0.72 | relative viability (YM155 + Decitabine; first compound 0.006325 µM): 0.664 | relative viability (YM155 + Decitabine; first compound 0.02 µM): 0.684 | relative viability (YM155 + Decitabine; first compound 0.06325 µM): 0.668 | relative viability (Quizartinib + Pemetrexed; first compound 0.001 µM): 0.948 | relative viability (Quizartinib + Pemetrexed; first compound 0.003162 µM): 0.984 | relative viability (Quizartinib + Pemetrexed; first compound 0.01 µM): 0.934 | relative viability (Quizartinib + Pemetrexed; first compound 0.03162 µM): 0.948 | relative viability (Quizartinib + Pemetrexed; first compound 0.1 µM): 1.01 | relative viability ([1]; first compound 0.001 µM): 0.898 | relative viability ([1]; first compound 0.003162 µM): 0.995 | relative viability ([1]; first compound 0.01 µM): 1.01 | relative viability ([1]; first compound 0.03162 µM): 1.34 | relative viability ([1]; first compound 0.1 µM): 0.977

NCI-H596
relative viability (YM155 + Alpelisib; first compound 0.006325 µM): 0.514 | relative viability (YM155 + Alpelisib; first compound 0.02 µM): 0.499 | relative viability (YM155 + Alpelisib; first compound 0.06325 µM): 0.49 | relative viability (YM155 + Decitabine; first compound 0.002 µM): 0.886 | relative viability (YM155 + Decitabine; first compound 0.006325 µM): 1 | relative viability (YM155 + Decitabine; first compound 0.02 µM): 1.02 | relative viability (YM155 + Decitabine; first compound 0.06325 µM): 1.04 | relative viability (Quizartinib + Pemetrexed; first compound 0.001 µM): 0.511 | relative viability (Quizartinib + Pemetrexed; first compound 0.003162 µM): 0.475 | relative viability (Quizartinib + Pemetrexed; first compound 0.01 µM): 0.498 | relative viability (Quizartinib + Pemetrexed; first compound 0.03162 µM): 0.476 | relative viability (Quizartinib + Pemetrexed; first compound 0.1 µM): 0.459

NCI-H727
relative viability (YM155 + Alpelisib; first compound 0.002 µM): 0.499 | relative viability (YM155 + Alpelisib; first compound 0.006325 µM): 0.495 | relative viability (YM155 + Alpelisib; first compound 0.02 µM): 0.586 | relative viability (YM155 + Alpelisib; first compound 0.06325 µM): 0.575 | relative viability (YM155 + Decitabine; first compound 0.002 µM): 0.871 | relative viability (YM155 + Decitabine; first compound 0.006325 µM): 1.01 | relative viability (YM155 + Decitabine; first compound 0.02 µM): 0.867 | relative viability (YM155 + Decitabine; first compound 0.06325 µM): 0.857 | relative viability ([1]; first compound 0.001 µM): 0.677 | relative viability ([1]; first compound 0.003162 µM): 0.684 | relative viability ([1]; first compound 0.01 µM): 0.625 | relative viability ([1]; first compound 0.03162 µM): 0.673 | relative viability ([1]; first compound 0.1 µM): 0.765

NCI-H1299
relative viability (YM155 + Alpelisib; first compound 0.002 µM): 0.993 | relative viability (YM155 + Alpelisib; first compound 0.006325 µM): 1.01 | relative viability (YM155 + Alpelisib; first compound 0.02 µM): 1.05 | relative viability (YM155 + Alpelisib; first compound 0.06325 µM): 1.07

NCI-H1563
relative viability (YM155 + Alpelisib; first compound 0.002 µM): 0.916 | relative viability (YM155 + Alpelisib; first compound 0.006325 µM): 0.977 | relative viability (YM155 + Alpelisib; first compound 0.02 µM): 0.895 | relative viability (YM155 + Alpelisib; first compound 0.06325 µM): 0.902 | relative viability (Quizartinib + Pemetrexed; first compound 0.001 µM): 1.18 | relative viability (Quizartinib + Pemetrexed; first compound 0.003162 µM): 0.788 | relative viability (Quizartinib + Pemetrexed; first compound 0.01 µM): 0.8 | relative viability (Quizartinib + Pemetrexed; first compound 0.03162 µM): 0.717 | relative viability (Quizartinib + Pemetrexed; first compound 0.1 µM): 0.76

NCI-H1650
relative viability (YM155 + Decitabine; first compound 0.002 µM): 0.382 | relative viability (YM155 + Decitabine; first compound 0.006325 µM): 0.384 | relative viability (YM155 + Decitabine; first compound 0.02 µM): 0.452 | relative viability (YM155 + Decitabine; first compound 0.06325 µM): 0.203 | relative viability (Quizartinib + Pemetrexed; first compound 0.001 µM): 0.342 | relative viability (Quizartinib + Pemetrexed; first compound 0.003162 µM): 0.398 | relative viability (Quizartinib + Pemetrexed; first compound 0.01 µM): 0.441 | relative viability (Quizartinib + Pemetrexed; first compound 0.1 µM): 0.381 | relative viability ([1]; first compound 0.001 µM): 0.386 | relative viability ([1]; first compound 0.003162 µM): 0.329 | relative viability ([1]; first compound 0.01 µM): 0.345 | relative viability ([1]; first compound 0.1 µM): 0.321

NCI-H1703
relative viability (YM155 + Alpelisib; first compound 0.002 µM): 0.292 | relative viability (YM155 + Alpelisib; first compound 0.006325 µM): 0.394 | relative viability (YM155 + Alpelisib; first compound 0.02 µM): 0.373 | relative viability (YM155 + Alpelisib; first compound 0.06325 µM): 0.339

NCI-H2228
relative viability (YM155 + Alpelisib; first compound 0.002 µM): 0.764 | relative viability (YM155 + Alpelisib; first compound 0.006325 µM): 0.782 | relative viability (YM155 + Alpelisib; first compound 0.02 µM): 0.645 | relative viability (YM155 + Alpelisib; first compound 0.06325 µM): 0.657 | relative viability (Quizartinib + Pemetrexed; first compound 0.001 µM): 0.288 | relative viability (Quizartinib + Pemetrexed; first compound 0.003162 µM): 0.311 | relative viability (Quizartinib + Pemetrexed; first compound 0.01 µM): 0.355 | relative viability (Quizartinib + Pemetrexed; first compound 0.03162 µM): 0.316 | relative viability (Quizartinib + Pemetrexed; first compound 0.1 µM): 0.317 | relative viability ([1]; first compound 0.001 µM): 0.695 | relative viability ([1]; first compound 0.003162 µM): 0.936 | relative viability ([1]; first compound 0.01 µM): 0.773 | relative viability ([1]; first compound 0.03162 µM): 1.03 | relative viability ([1]; first compound 0.1 µM): 0.76

NCI-H2342
relative viability (YM155 + Decitabine; first compound 0.002 µM): 0.729 | relative viability (YM155 + Decitabine; first compound 0.006325 µM): 0.709 | relative viability (YM155 + Decitabine; first compound 0.02 µM): 0.788 | relative viability (YM155 + Decitabine; first compound 0.06325 µM): 0.717 | relative viability (Quizartinib + Pemetrexed; first compound 0.001 µM): 0.745 | relative viability (Quizartinib + Pemetrexed; first compound 0.003162 µM): 0.83 | relative viability (Quizartinib + Pemetrexed; first compound 0.01 µM): 0.774 | relative viability (Quizartinib + Pemetrexed; first compound 0.03162 µM): 0.746 | relative viability (Quizartinib + Pemetrexed; first compound 0.1 µM): 0.778 | relative viability ([1]; first compound 0.001 µM): 0.482 | relative viability ([1]; first compound 0.003162 µM): 0.538 | relative viability ([1]; first compound 0.01 µM): 0.483 | relative viability ([1]; first compound 0.03162 µM): 0.615 | relative viability ([1]; first compound 0.1 µM): 0.462

SW 900
relative viability (YM155 + Decitabine; first compound 0.006325 µM): 0.431 | relative viability (YM155 + Decitabine; first compound 0.02 µM): 0.399 | relative viability (YM155 + Decitabine; first compound 0.06325 µM): 0.458 | relative viability (Quizartinib + Pemetrexed; first compound 0.001 µM): 0.435 | relative viability (Quizartinib + Pemetrexed; first compound 0.003162 µM): 0.488 | relative viability (Quizartinib + Pemetrexed; first compound 0.01 µM): 0.422 | relative viability (Quizartinib + Pemetrexed; first compound 0.03162 µM): 0.485 | relative viability (Quizartinib + Pemetrexed; first compound 0.1 µM): 0.483 | relative viability ([1]; first compound 0.001 µM): 0.507 | relative viability ([1]; first compound 0.003162 µM): 0.547 | relative viability ([1]; first compound 0.01 µM): 0.63 | relative viability ([1]; first compound 0.03162 µM): 0.541 | relative viability ([1]; first compound 0.1 µM): 0.558
